These results are taken from paper PMC3505660, “Application of Collagen-Model Triple-Helical Peptide-Amphiphiles for CD44-Targeted Drug Delivery Systems” (Journal of Drug Delivery, 2012).

For series [1], the system named is M14#5 human metastatic melanoma cells. In words: CellTiter-Glo Luminescent Cell Viability Assay (cytotoxicity), M14#5. It is filed as cell-based. Conditions: M14#5 cells, [DOX] = 100 μM, 3 h exposure. The source says: (§1) The M14#5 and M14#11 human metastatic melanoma cell lines were generously provided by Dr. Barbara Mueller. The BJ foreskin fibroblasts […] were obtained from the American Type Culture Collection (ATCC) (Cat# CRL-2522). Cell media (Cat# MT10-013-CV) and trypan blue (Cat# ICN1691049) were obtained from Fisher Scientific or CellGro, and all reagents required for cell culture were purchased from Invitrogen. Cells were maintained in DMEM supplemented with 10% fetal bovine serum (Cat# 10437028), 50 units/mL penicillin, and 0.05 mg/mL streptomycin (Cat# 15140163). Cells were cultured with complete medium at 37°C in a humidified atmosphere of 5% CO2 in air. For all experiments cells were harvested from subconfluent (<80%) cultures using a trypsin-EDTA (Cat# 15400054) solution and then resuspended in fresh medium. Preparations of cells with a >90% viability, as determined by trypan blue exclusion, were used.
(§2) The cytotoxicity of all liposomal systems used in this study, as well as free DOX, on the cells was determined using the CellTiter-Glo Luminescent Cell Viability Assay. The M14#5, M14#11, and BJ cells were plated on 96-well tissue cultured treated plates corning at a density of 5 × 10^3 cells per well and incubated for 24 h at 37°C and 5% CO2. The culture medium was then replaced with 100 μL of medium containing various concentrations of each liposomal system or free DOX. […]

For series [2], the system named is BJ foreskin fibroblasts. In words: CellTiter-Glo Luminescent Cell Viability Assay (cytotoxicity), BJ. The settings on record: BJ cells, [DOX] = 100 μM, 3 h exposure. It is filed as cell-based, human.
From the text: as §1, §2

On the set-up of series [3]: method as in PMID 8313389, PMID 7865538. The settings on record: cited from earlier work. The source says: Potential DOX delivery in vivo, however, is quite different than in vitro when one considers circulation times. […] In ...

On to `COc1cccc2c1C(=O)c1c(O)c3c(c(O)c1C2=O)C[C@@](O)(C(=O)CO)C[C@@H]3O[C@H]1C[C@H](N)[C@H](O)[C@H](C)O1` [free DOX, doxorubicin], for which the cell viability in series [1] and in series [2] was 50–60% throughout. Besides, the “clearance of free DOX relative to DOX encapsulated within PEGylated liposomes” value in series [3] is recorded as 450 times faster.
